Measured values: patent publication US4180505A, “Novel steroidspirooxazolidines and process for their preparation” (Richter Gedeon Vegyeszet, Gyar RT, priority 1977, dated 1979)

How the values were obtained:
[1] = test system: vesicula seminalis gland (weight increase induced by testosterone propionate); assay: Antiandrogenic activity in castrated testosterone propionate-treated male mice, vesicula seminalis weight (modified method of Dorfman); format: in vivo
Experimental: The antiandrogenic activity of the compounds according to the invention--anundesirable side-effect exerted by spironolactone during protracted treating--was tested by the modified method of Dorfman (R. Dorfman: Steroids 2, 185 (1963).
Castrated male mice weighing 25 to 30 g. each were treated with testosterone propionate (T.P.) in every second day. The total dose amounted to 300 μg./2 weeks/animal. The test compounds were administered parallel with the T. […] The antiandrogenic activity of a given test compound was expressed in %. If the increase in weight of the vesicula seminalis gland induced by T.P. is 100%, subtracting the weight-increase induced by the combination of T.P. and the test compound from 100, the percentage inhibition is obtained.
Each group of test amimals consisted of from 8 to 10 mice.

[2] = test system: aldosterone; assay: Aldosterone antagonist effect in adrenalectomized DOCA-treated rats, urinary Na+/K+ (method of C. M. Kagawa); format: in vivo; details: for Activity related to Spironolactone: Spironolactone = 1.0
Experimental: M. Kagawa [C. M. Kagawa et al., J. Pharmacol. Exp. Ther. 126, 123 (1959)].
18 hours after the removal of their suprarenal glands, desoxycorticosterone acetate (DOCA) was administered to groups of rats which were simultaneously treated with the test and, respectively, the reference compounds. The reference compound, i.e. Spironolactone (17α-carboxyethyl-17β-hydroxy-7α-acetylthioandrost-4-en-3-one-lactone), was administered orally in a dose of 480 μg./animal. The Na^+ and K^+ concentrations in the urine of the treated animals were determined by flame photometry. Evaluation was made on the basis of the Na^+ /K^+ proportions.

[3] = 5.0 mg/2 weeks/animal s.c., with testosterone propionate
[4] = Rattus norvegicus, po, 480 μg/animal p.o., read-out: DOCA blocking activity
[5] = Rattus norvegicus, po, 960 μg/animal p.o., read-out: DOCA blocking activity
[6] = 10.0 mg/2 weeks/animal s.c., with testosterone propionate

Compound	+ Stimulation, % / - Inhibition, % [1, 3]	Increase in weight of vesicula seminalis [1, 3] [%]	log (Na × 10 / K), X ± S ([2]; 480 μg/animal p.o., with DOCA)	Activity related to Spironolactone ([2]; 480 μg/animal p.o.)	log (Na × 10 / K), X ± S ([2]; 960 μg/animal p.o., with DOCA)	inhibition in vivo at 0.48 mg [2, 4] [%]	inhibition in vivo at 0.96 mg [2, 5] [%]	further results
CC[C@]12CC[C@H]3[C@@H](CCC4=CC(=NOC)CC[C@@H]43)[C@@H]1CC[C@@]21CN(C)C(=O)O1 [13β-Ethyl-3-methoxyiminogon-4-ene-17S-spiro-5'-(2'-oxo-3'-methyloxazolidine)]	+15.0%	115.0	1.19	0.98	0.97	53	24	–
CN1C[C@@]2(CC[C@H]3[C@@H]4CC=C5C[C@@H](F)CC[C@]5(C)[C@H]4CC[C@@]32C)OC1=O [3β-Fluoroandrost-5-ene-17S-spiro-5'-(2'-oxo-3'-methyloxazolidine)]	–	–	0.98	0.80	1.13	26	45	–
CC(=O)OCC(=O)[C@H]1CC[C@H]2[C@@H]3CCC4=CC(=O)CC[C@]4(C)[C@H]3CC[C@]12C [DOCA, Pregn-4-ene-3,20-dion-21-ol-acetate, reference compound]	–	–	–	–	–	–	–	log (Na × 10 / K), X ± S ([2]; DOCA, 12.5 μg/animal s.c.): 0.78
CN1C[C@@]2(CC[C@H]3[C@@H]4C=CC5=CC(=O)CC[C@]5(C)[C@H]4CC[C@@]32C)OC1=O [Androst-4,6-dien-3-one-17S-spiro-5'-(2'-oxo-3'-methyloxazolidine)]	-1.4%	98.6	1.14	0.94	1.74	46	123	–
CCC(=O)O[C@H]1CC[C@H]2[C@@H]3CCC4=CC(=O)CC[C@]4(C)[C@H]3CC[C@]12C [Testosterone propionate, testosterone propionate, reference compound]	–	–	–	–	–	–	–	Increase in weight of vesicula seminalis ([1]; testosterone propionate, 0.3 mg/2 weeks/animal): 100%
C/C=C\N1C[C@@]2(CC[C@H]3[C@@H]4CCC5=C(CC=C(OC)C5)[C@H]4CC[C@@]32CC)OC1=O [13β-Ethyl-3-methoxygona-2,5(10)-diene-17S-spiro-5'-(2'-oxo-3'-(1"-cis-propenyl)-oxazolidine)]	+12.5%	112.5	1.16	0.96	1.22	49	56	–
CC(=O)S[C@@H]1CC2=CC(=O)CC[C@]2(C)[C@H]2CC[C@@]3(C)[C@@H](CC[C@@]34CCC(=O)O4)[C@H]12 [Spironolactone, 17α-carboxyethyl-17β-hydroxy-7α-acetylthioandrost-4-en-3-one-lactone, reference compound]	-32.5%	67.5	1.21	1.0	–	54	–	inhibition (antiandrogenic activity) ([1]; 5.0 mg/2 weeks/animal s.c.): 32.5%; inhibition (antiandrogenic activity) ([1]; 10.0 mg/2 weeks/animal s.c.): 50.6%; + Stimulation, % / - Inhibition, % [1, 6]: -50.6%; Increase in weight of vesicula seminalis [1, 6]: 49.4%
CN1C[C@@]2(CC[C@H]3[C@@H]4C=C[C@]56C[C@@H](O)CC[C@]5(C6)[C@H]4CC[C@@]32C)OC1=O [3β-Hydroxy-5β,19-cycloandrost-6-ene-17S-spiro-5'-(2'-oxo-3'-methyloxazolidine)]	–	–	1.18	0.98	1.23	51	58	–
CN1C[C@@]2(CC[C@H]3[C@@H]4CCC5=CC(=O)CC[C@@H]5[C@H]4CC[C@@]32C)OC1=O [Oestr. 4-en-3-one-17S-spiro-5'-(2'-oxo-3'-methyloxazolidine)]	+13.0%	113.0	1.26	1.04	1.12	61	44	–
CC[C@]12C=CC3=C4CCC(=O)C=C4CC[C@H]3[C@@H]1CC[C@@]21CN(C)C(=O)O1 [13β-Ethylgona-4,9(10),11-trien-3-one-17S-spiro-5'-(2'-oxo-3'-methyloxazolidine)]	–	–	–	–	–	–	–	inhibition against testosterone propionate (antiandrogenic activity) ([1]; 300 μg/2 weeks/animal, against 300 μg/2 weeks/animal T.P.): 70%; antialdosterone activity ([2]; compared with the compounds listed in Table I, result in words): negligible
CC[C@]12CC[C@H]3[C@@H](CCC4=CC(=O)CC[C@@H]43)[C@@H]1CC[C@@]21CN(C)C(=O)O1 [13β-Ethyl-4-en-3-one-17S-spiro-5'-(2'-oxo-3'-methyloxazolidine)]	–	–	1.13	0.93	1.16	45	49	log (Na × 10 / K), X ± S ([2]; 1920 μg/animal p.o., with DOCA): 1.30; inhibition in vivo at 1.92 mg ([2]; Rattus norvegicus, po, 1920 μg/animal p.o., read-out: DOCA blocking activity): 67%
CC[C@]12CC[C@@H]3C4=C(CC[C@H]3[C@@H]1CC[C@@]21CN(C)C(=O)O1)CC(=O)CC4 [13β-Ethylgon-5(10)-en-3-one-17S-spiro-5'-(2'-oxo-3'-methyloxazolidine)]	+14.0%	114.0	1.02	0.84	1.34	31	71	–
